US12239643B2, “Therapeutic agent for inflammatory diseases, autoimmune diseases, fibrotic diseases, and cancer diseases” (MEIJI SEIKA PHARMA CO., LTD., priority 2018, dated 2025)

System: PDE4
Assay: Evaluation of PDE4 inhibitory activity, scintillation proximity assay
Format: biochemical
Settings: scintillation proximity assay; class symbols of Evaluation 1; read-out: PDE4 Inhibitory Activity (concentration for the inhibition rate of 50%, IC50), Evaluation 1
Procedure, shortened: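 SPA with [2,8-3H]-cAMP and diluted PDE4 enzyme preparation in 50 mM Tris-HCl pH 7.4, 8.3 mM MgCl2, 1.7 mM EGTA, 3 mg/mL BSA, 120 min at room temperature. Product captured on ZnSO4-containing YSi-SPA beads, scintillation counted; IC50 from inhibition curves vs DMSO control and no-enzyme blank.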

Row | Compound | IC50
1 | CNC(=O)c1cc(-c2nccs2)c2oc(N3CC4CCC(C3)N4)nc2c1 [Example 100, 2-(3,8-Diazabicyclo[3.2.1]octan-3-yl)-N-methyl-7-(thiazol-2-yl)benzo[d]oxazole-5-carboxamide] | < 100 nM
2 | CC(O)c1ccc(-c2nccs2)c2oc(N3CC4CCC(C3)N4)nc12 (centres unmarked) [Example 124, 1-(2-(3,8-Diazabicyclo[3.2.1]octan-3-yl)-7-(thiazol-2-yl)benzo[d]oxazol-4-yl)ethan-1-ol] | < 100 nM
3 | CCOC(=O)c1cc(-c2nccs2)c2oc(N3CC4CCC(C3)N4)nc2c1C(F)(F)F [Example 163, Ethyl 2-(3,8-diazabicyclo[3.2.1]octan-3-yl)-7-(thiazol-2-yl)-4-(trifluoromethyl)benzo[d]oxazole-5-carboxylate] | < 100 nM
4 | Oc1ccc(-c2nccs2)c2oc(N3CC4CC(C3)N4)nc12 [Example 79, 2-(3,6-Diazabicyclo[3.1.1]heptan-3-yl)-7-(thiazol-2-yl)benzo[d]oxazol-4-ol] | < 100 nM
5 | C=CCOc1cc(-c2nccs2)c2oc(N3CC4CCC(C3)N4)nc2c1 [Example 72, 5-(Allyloxy)-2-(3,8-diazabicyclo[3.2.1]octan-3-yl)-7-(thiazol-2-yl)benzo[d]oxazole] | < 100 nM
6 | FC(F)(F)c1c(Cl)cc(-n2cccn2)c2oc(N3CC4COCC(C3)N4)nc12 [Example 18, 7-(5-Chloro-7-(1H-pyrazol-1-yl)-4-(trifluoromethyl)benzo[d]oxazol-2-yl)-3-oxa-7,9-diazabicyclo[3.3.1]nonane] | 100 to 1000 nM
7 | CN(C)C(=O)c1cc(-c2nccs2)c2oc(N3CC4CCC(C3)N4)nc2c1 [Example 94, 2-(3,8-Diazabicyclo[3.2.1]octan-3-yl)-N,N-dimethyl-7-(thiazol-2-yl)benzo[d]oxazole-5-carboxamide] | < 100 nM
8 | FC(F)(F)COC(c1cc(-c2nccs2)c2oc(N3CC4CCC(C3)N4)nc2c1)C(F)(F)F (centres unmarked) [Example 146, 2-(3,8-Diazabicyclo[3.2.1]octan-3-yl)-7-(thiazol-2-yl)-5-(2,2,2-trifluoro-1-(2,2,2-trifluoroethoxy)ethyl)benzo[d]oxazole] | < 100 nM
9 | CC(C)(O)c1cc(-c2nccs2)c2oc(N3CC4CC(C3)N4)nc2c1 [Example 173, 2-(2-(3,6-Diazabicyclo[3.1.1]heptan-3-yl)-7-(thiazol-2-yl)benzo[d]oxazol-5-yl)propan-2-ol] | < 100 nM
10 | FC(F)(F)Oc1c(Cl)cc(-c2ncco2)c2oc(N3CC4CCC(C3)N4)nc12 [Example 9, 2-(3,8-Diazabicyclo[3.2.1]octan-3-yl)-5-chloro-7-(oxazol-2-yl)-4-(trifluoromethoxy)benzo[d]oxazole] | < 100 nM
11 | CC(C)(O)c1cc(-c2nccs2)c2oc(N3CC4CC(C3)N4)nc2c1C(F)(F)F [Example 178, 2-(2-(3,6-Diazabicyclo[3.1.1]heptan-3-yl)-7-(thiazol-2-yl)-4-(trifluoromethyl)benzo[d]oxazol-5-yl)propan-2-ol] | < 100 nM
12 | CC(=O)Nc1cc(-c2nccs2)c2oc(N3CC4CCC(C3)N4)nc2c1 [Example 50, N-(2-(3,8-diazabicyclo[3.2.1]octan-3-yl)-7-(thiazol-2-yl)benzo[d]oxazol-5-yl)acetamide] | < 100 nM
13 | COC(C)(c1cc(-c2nccs2)c2oc(N3CC4CC(C3)N4)nc2c1)C(F)(F)F (centres unmarked) [Example 103, 2-(3,6-Diazabicyclo[3.1.1]heptan-3-yl)-7-(thiazol-2-yl)-5-(1,1,1-trifluoro-2-methoxypropan-2-yl)benzo[d]oxazole] | < 100 nM

Same assay, conditions: scintillation proximity assay; read-out: PDE4 Inhibitory Activity (Evaluation 1; concentration for the inhibition rate of 50%)

Row | Compound | IC50
14 | CSc1ccc(-c2nccs2)c2oc(N3CC4CC(C3)N4)nc12 [Example 345, 2-(3,6-Diazabicyclo[3.1.1]heptan-3-yl)-4-(methylthio)-7-(thiazol-2-yl)benzo[d]oxazole] | < 100 nM
15 | OC1CCC(Oc2ccc(-c3nccs3)c3oc(N4CC5CC(C4)N5)nc23)CC1 (centres unmarked) [Example 305, 4-((2-(3,6-Diazabicyclo[3.1.1]heptan-3-yl)-7-(thiazol-2-yl)benzo[d]oxazol-4-yl)oxy)cyclohexan-1-ol] | < 100 nM
16 | CC(=O)c1ccc(-c2nccs2)c2oc(N3CC4CC(C3)N4)nc12 [Example 244, 1-(2-(3,6-Diazabicyclo[3.1.1]heptan-3-yl)-7-(thiazol-2-yl)benzo[d]oxazol-4-yl)ethan-1-one] | < 100 nM
17 | COC(C)c1cc(-c2nccs2)c2oc(N3CC4CCC(C3)N4)nc2c1C(F)(F)F (centres unmarked) [Example 184, 2-(3,8-Diazabicyclo[3.2.1]octan-3-yl)-5-(1-methoxyethyl)-7-(thiazol-2-yl)-4-(trifluoromethyl)benzo[d]oxazole] | < 100 nM
18 | CC(O)c1cc(-c2nccs2)c2oc(N3CC4CCC(C3)N4)nc2c1C(F)(F)F (centres unmarked) [Example 181, 1-(2-(3,8-Diazabicyclo[3.2.1]octan-3-yl)-7-(thiazol-2-yl)-4-(trifluoromethyl)benzo[d]oxazol-5-yl)ethan-1-ol] | < 100 nM
19 | CC(C)(O)C(F)(F)Oc1ccc(-c2ccccn2)c2oc(N3CC4CC(C3)N4)nc12 [Example 289, 1-((2-(3,6-Diazabicyclo[3.1.1]heptan-3-yl)-7-(pyridin-2-yl)benzo[d]oxazol-4-yl)oxy)-1,1-difluoro-2-methylpropan-2-ol] | < 100 nM
20 | CC(C)(O)c1cc(-c2nccs2)c2oc(N3CC4CCCC(C3)N4)nc2c1OC(F)(F)F [Example 197, 2-(2-(3,9-Diazabicyclo[3.3.1]nonan-3-yl)-7-(thiazol-2-yl)-4-(trifluoromethoxy)benzo[d]oxazol-5-yl)propan-2-ol] | < 100 nM
21 | FC(F)(F)COC(c1ccc(-c2nccs2)c2oc(N3CC4CCC(C3)N4)nc12)C(F)(F)F (centres unmarked) [Example 221, 2-(3,8-Diazabicyclo[3.2.1]octan-3-yl)-7-(thiazol-2-yl)-4-(2,2,2-trifluoro-1-(2,2,2-trifluoroethoxy)ethyl)benzo[d]oxazole] | < 100 nM
22 | CCOC(=O)c1cc(-c2nccs2)c2oc(N3CC4CCC(C3)N4)nc2c1OC(F)(F)F [Example 186, Ethyl 2-(3,8-diazabicyclo[3.2.1]octan-3-yl)-7-(thiazol-2-yl)-4-(trifluoromethoxy)benzo[d]oxazole-5-carboxylate] | < 100 nM
23 | OC(c1cc(-c2nccs2)c2oc(N3CC4CC(C3)N4)nc2c1OC(F)(F)F)C(F)F (centres unmarked) [Example 207, 1-(2-(3,6-Diazabicyclo[3.1.1]heptan-3-yl)-7-(thiazol-2-yl)-4-(trifluoromethoxy)benzo[d]oxazol-5-yl)-2,2-difluoroethan-1-ol] | < 100 nM
24 | CC(C)(O)COc1ccc(-c2nccs2)c2oc(N3CC4CC(C3)N4)nc12 [Example 279, 1-((2-(3,6-Diazabicyclo[3.1.1]heptan-3-yl)-7-(thiazol-2-yl)benzo[d]oxazol-4-yl)oxy)-2-methylpropan-2-ol] | < 100 nM
25 | CC(C)(O)C(F)(F)Oc1ccc(-c2nccs2)c2oc(N3CC4CC(C3)N4O)nc12 [Example 371, 3-(4-(1,1-Difluoro-2-hydroxy-2-methylpropoxy)-7-(thiazol-2-yl)benzo[d]oxazol-2-yl)-3,6-diazabicyclo[3.1.1]heptan-6-ol] | < 100 nM
26 | CC(O)(O)C(F)(F)Oc1ccc(-c2nccs2)c2oc(N3CC4CC(C3)N4)nc12 [Example 377, 1-((2-(3,6-Diazabicyclo[3.1.1]heptan-3-yl)-7-(thiazol-2-yl)benzo[d]oxazol-4-yl)oxy)-1,1-difluoropropane-2,2-diol] | < 100 nM
